Test results taken from the NIST ThermoML archive (doi:10.1016/j.jct.2012.04.005).
Where “and” joins values, the source holds several entries; their conditions need not be identical. Equal entries are not always repeated.

Details: isochoric method

CCOCC [diethyl ether]
Liquid
Details | mass density
416.1 K | 534.6 kg/m3
425.19 K | 517.3 kg/m3
437.14 K | 485.2 kg/m3
450.6 K | 441.5 kg/m3
450.77 K | 440.8 kg/m3
459.61 K | 394.8 kg/m3
464.79 K | 348.2 kg/m3
466.12 K | 212.6 kg/m3
466.47 K | 310.8 kg/m3
466.66 K | 233.7 kg/m3
466.75 K | 296.7 kg/m3
466.8 K | 288.3 kg/m3
466.81 K | 278.7 kg/m3
466.82 K | 275.7 kg/m3
466.83 K | 255 kg/m3 and 260.7 kg/m3
466.85 K | 261.2 kg/m3

Details | mass density [kg/m3]
416.3 K, 1625 kPa, Liquid | 534.6
416.83 K, 1747 kPa, Liquid | 534.6
416.93 K, 1693 kPa, Liquid | 534.6
417.26 K, 1783 kPa, Liquid | 534.6
418.11 K, 2014 kPa, Liquid | 534.6
420.91 K, 2770 kPa, Liquid | 534.6
421.09 K, 2823 kPa, Liquid | 534.6
422.05 K, 3084 kPa, Liquid | 534.6
425.27 K, 1926 kPa, Liquid | 517.3
425.69 K, 4074 kPa, Liquid | 534.6
425.75 K, 2146 kPa, Liquid | 517.3
425.83 K, 2193 kPa, Liquid | 517.3
425.96 K, 4149 kPa, Liquid | 534.6
426.06 K, 2271 kPa, Liquid | 517.3
426.78 K, 2602 kPa, Liquid | 517.3
427.43 K, 4552 kPa, Liquid | 534.6
432.78 K, 5984 kPa, Liquid | 534.6
432.99 K, 6050 kPa, Liquid | 534.6
433.93 K, 6306 kPa, Liquid | 534.6
437.48 K, 2381 kPa, Liquid | 485.2
437.61 K, 2392 kPa, Liquid | 485.2
437.68 K, 2382 kPa, Liquid | 485.2
437.79 K, 2430 kPa, Liquid | 485.2
438.72 K, 2616 kPa, Liquid | 485.2
438.85 K, 7649 kPa, Liquid | 534.6
439.14 K, 7729 kPa, Liquid | 534.6
439.97 K, 7955 kPa, Liquid | 534.6
445.62 K, 3997 kPa, Liquid | 485.2
445.85 K, 4046 kPa, Liquid | 485.2
446.57 K, 4191 kPa, Liquid | 485.2
448.81 K, 10345 kPa, Liquid | 534.6
449.04 K, 10408 kPa, Liquid | 534.6
449.96 K, 10662 kPa, Liquid | 534.6
450.97 K, 2954 kPa, Liquid | 441.5
450.98 K, 2969 kPa, Liquid | 440.8
451.08 K, 2998 kPa, Liquid | 440.8
451.17 K, 3017 kPa, Liquid | 440.8
451.49 K, 3039 kPa, Liquid | 441.5
451.69 K, 3088 kPa, Liquid | 441.5
452.31 K, 3185 kPa, Liquid | 440.8
452.82 K, 3254 kPa, Liquid | 441.5
459.55 K, 6842 kPa, Liquid | 485.2
459.83 K, 6900 kPa, Liquid | 485.2
460.03 K, 3345 kPa, Liquid | 394.8
460.23 K, 3396 kPa, Liquid | 394.8
460.36 K, 3392 kPa, Liquid | 394.8
460.5 K, 13585 kPa, Liquid | 534.6
460.64 K, 7064 kPa, Liquid | 485.2
460.64 K, 13628 kPa, Liquid | 534.6
461.45 K, 3512 kPa, Liquid | 394.8
461.55 K, 13877 kPa, Liquid | 534.6
461.58 K, 4562 kPa, Liquid | 441.5
461.85 K, 4602 kPa, Liquid | 441.5
461.98 K, 4645 kPa, Liquid | 440.8
462.66 K, 4726 kPa, Liquid | 441.5
463.06 K, 4812 kPa, Liquid | 440.8
465.09 K, 3597 kPa, Liquid | 348.2
465.58 K, 3635 kPa, Liquid | 348.2
465.68 K, 3649 kPa, Liquid | 348.2
465.84 K, 3662 kPa, Liquid | 348.2
466.13 K, 3555 kPa, Gas | 212.6
466.67 K, 3560 kPa, Gas | 233.7
466.68 K, 3578 kPa, Gas | 212.6
466.76 K, 3609 kPa, Liquid | 296.7
466.85 K, 3565 kPa, Gas | 260.7
466.87 K, 3577 kPa, Liquid | 275.7
466.88 K, 3561 kPa, Liquid | 261.2
466.88 K, 3641 kPa, Liquid | 310.8
466.89 K, 3586 kPa, Gas | 255
467.09 K, 3625 kPa, Liquid | 278.8
467.09 K, 3678 kPa, Liquid | 310.8
467.29 K, 3582 kPa, Liquid | 261.2
467.29 K, 3591 kPa, Gas | 233.7
467.29 K, 3602 kPa, Liquid | 275.7
467.29 K, 3605 kPa, Gas | 255
467.39 K, 3612 kPa, Gas | 255
467.47 K, 3597 kPa, Gas | 233.7
467.49 K, 3648 kPa, Liquid | 296.7
467.5 K, 3591 kPa, Liquid | 261.2
467.57 K, 3699 kPa, Liquid | 310.8
467.62 K, 3606 kPa, Gas | 260.7
467.69 K, 3637 kPa, Liquid | 288.3
467.96 K, 3736 kPa, Liquid | 310.8
468.29 K, 3629 kPa, Gas | 233.7
468.29 K, 3662 kPa, Gas | 255
468.39 K, 3632 kPa, Liquid | 261.2
468.52 K, 3635 kPa, Gas | 212.6
468.69 K, 3669 kPa, Gas | 260.7
468.69 K, 3721 kPa, Liquid | 278.8
468.69 K, 3780 kPa, Liquid | 310.8
468.83 K, 3719 kPa, Liquid | 278.8
468.94 K, 3681 kPa, Liquid | 275.7
469.49 K, 3681 kPa, Gas | 212.6
469.89 K, 3738 kPa, Liquid | 275.7
469.89 K, 3776 kPa, Liquid | 278.8
470.22 K, 4019 kPa, Liquid | 348.2
470.71 K, 16287 kPa, Liquid | 534.6
470.75 K, 3929 kPa, Liquid | 296.7
471.09 K, 16390 kPa, Liquid | 534.6
471.25 K, 9234 kPa, Liquid | 485.2
471.29 K, 4110 kPa, Liquid | 348.2
471.59 K, 9306 kPa, Liquid | 485.2
471.69 K, 16551 kPa, Liquid | 534.6
472.29 K, 9719 kPa, Liquid | 485.2
472.58 K, 4780 kPa, Liquid | 394.8
473.16 K, 3968 kPa, Liquid | 288.3
473.49 K, 4095 kPa, Liquid | 296.7
473.49 K, 4886 kPa, Liquid | 394.8
474.18 K, 4037 kPa, Liquid | 288.3
477.4 K, 7063 kPa, Liquid | 440.8
478.46 K, 7226 kPa, Liquid | 440.8
478.97 K, 10850 kPa, Liquid | 485.2
479.25 K, 10911 kPa, Liquid | 485.2
479.29 K, 4255 kPa, Liquid | 261.2
479.79 K, 4580 kPa, Liquid | 310.8
480.04 K, 11078 kPa, Liquid | 485.2
480.08 K, 4398 kPa, Liquid | 288.3
480.2 K, 11129 kPa, Liquid | 485.2
480.44 K, 4322 kPa, Liquid | 296.7
480.44 K, 11179 kPa, Liquid | 485.2
480.83 K, 4665 kPa, Liquid | 310.8
481.03 K, 4460 kPa, Liquid | 288.3
481.43 K, 11386 kPa, Liquid | 485.2
487.13 K, 6550 kPa, Liquid | 394.8
488.12 K, 6673 kPa, Liquid | 394.8
490.82 K, 9157 kPa, Liquid | 440.8
491.84 K, 9329 kPa, Liquid | 440.8
492.58 K, 13642 kPa, Liquid | 485.2
492.82 K, 13695 kPa, Liquid | 485.2
493.6 K, 13857 kPa, Liquid | 485.2
499.04 K, 6021 kPa, Liquid | 310.8
499.15 K, 8032 kPa, Liquid | 394.8
500.02 K, 6096 kPa, Liquid | 310.8
500.21 K, 8166 kPa, Liquid | 394.8
504.02 K, 15987 kPa, Liquid | 485.2
504.28 K, 16044 kPa, Liquid | 485.2
505.05 K, 16203 kPa, Liquid | 485.2
517.61 K, 10294 kPa, Liquid | 394.8
518.47 K, 10403 kPa, Liquid | 394.8
533.2 K, 12288 kPa, Liquid | 394.8
534.36 K, 12440 kPa, Liquid | 394.8
554.38 K, 14968 kPa, Liquid | 394.8
555.38 K, 15098 kPa, Liquid | 394.8
574.32 K, 17455 kPa, Liquid | 394.8
575.32 K, 17595 kPa, Liquid | 394.8
